Results on 14 molecules are retold here after patent US9796733B2, “Imidazo-pyrazine derivatives useful as soluble guanylate cyclase activators” (Merck Sharp & Dohme Corp., priority 2014, dated 2017).

Each structure is given as a SMILES string.

In assay [1] the target is T1, sGC α1/β1 heterodimer (Homo sapiens, UniProt Q02108+Q02153).
T1 construct: expressed in transfected cells; host or cells: CHO-K1 (clone #7, CHO-K1/sGC)
T1 sequence (Q02108 1-690): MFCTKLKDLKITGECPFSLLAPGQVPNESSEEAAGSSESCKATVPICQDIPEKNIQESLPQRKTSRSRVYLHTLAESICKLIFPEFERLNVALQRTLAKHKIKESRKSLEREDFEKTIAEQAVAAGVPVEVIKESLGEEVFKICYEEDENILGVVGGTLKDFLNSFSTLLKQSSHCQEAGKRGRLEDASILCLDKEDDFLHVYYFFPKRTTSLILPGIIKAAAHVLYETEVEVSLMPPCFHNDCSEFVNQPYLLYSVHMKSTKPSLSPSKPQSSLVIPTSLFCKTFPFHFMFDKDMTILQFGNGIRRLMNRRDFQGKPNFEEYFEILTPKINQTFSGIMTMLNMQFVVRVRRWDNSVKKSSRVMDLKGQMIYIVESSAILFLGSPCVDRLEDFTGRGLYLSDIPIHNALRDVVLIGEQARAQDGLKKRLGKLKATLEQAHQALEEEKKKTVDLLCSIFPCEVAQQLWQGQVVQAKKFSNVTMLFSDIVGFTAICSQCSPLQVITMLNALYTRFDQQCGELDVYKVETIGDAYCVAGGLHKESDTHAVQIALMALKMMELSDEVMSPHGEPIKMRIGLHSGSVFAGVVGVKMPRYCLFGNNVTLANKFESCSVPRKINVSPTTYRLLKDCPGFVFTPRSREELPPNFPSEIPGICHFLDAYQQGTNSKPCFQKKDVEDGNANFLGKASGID
T1 sequence (Q02153 1-619): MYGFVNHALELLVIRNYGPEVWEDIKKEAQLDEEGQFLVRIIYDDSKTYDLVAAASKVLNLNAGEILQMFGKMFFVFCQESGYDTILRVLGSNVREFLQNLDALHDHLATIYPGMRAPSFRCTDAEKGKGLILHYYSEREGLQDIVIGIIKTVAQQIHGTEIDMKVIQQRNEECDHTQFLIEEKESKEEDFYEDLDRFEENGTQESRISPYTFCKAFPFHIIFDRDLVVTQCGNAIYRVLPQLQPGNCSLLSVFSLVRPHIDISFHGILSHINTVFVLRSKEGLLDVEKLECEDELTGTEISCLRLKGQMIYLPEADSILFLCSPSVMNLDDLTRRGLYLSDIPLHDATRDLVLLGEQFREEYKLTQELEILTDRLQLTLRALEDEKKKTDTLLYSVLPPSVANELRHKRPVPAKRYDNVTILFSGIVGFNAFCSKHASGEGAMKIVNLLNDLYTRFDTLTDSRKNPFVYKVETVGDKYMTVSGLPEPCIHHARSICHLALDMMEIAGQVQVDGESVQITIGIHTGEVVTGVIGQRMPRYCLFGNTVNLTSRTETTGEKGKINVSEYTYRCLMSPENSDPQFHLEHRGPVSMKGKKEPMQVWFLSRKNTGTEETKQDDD
Nature of the assay: Cell-based sGC functional assay (CASA assay): cGMP generation in CHO-K1/sGC cells, HTRF detection. The conditions noted are these: for Emax: CHO-K1, percent activation relative to standard Compound A in CHO-K1/sGC cells, read-out: % Act.; for EC50: inflection point (IP) of cGMP generation in CHO-K1/sGC cells, 4P fit, activity expressed as percentage of Compound A. Summed up:
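Stable CHO-K1/sGC cells in EBSS buffer with 5 mM MgCl2, 0.05% BSA and 0.5 mM IBMX were incubated with compound (2.5% DMSO final) ±1 μM DETA-NO for 1 hr at 37° C. cGMP was measured by HTRF. Activation is expressed as % of reference HDA Compound A maximum, with IP and max fold induction from a 4P fit.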
On the technique in general: In TR-FRET formats the signal depends on donor and acceptor labels being close together.

In assay [2] the test system is Spontaneously hypertensive rats (SHR). The assay is described as follows: Acute efficacy in spontaneously hypertensive rats (SHR): telemetry blood pressure lowering after a single oral dose. Type of assay: in vivo, rat. The source says: Acute Efficacy in Spontaneously Hypertensive Rats (SHR)
Spontaneously hypertensive rats (SHR, male, Charles River) were implanted with DSI TA11PA-C40 telemetry device (Data Sciences, Inc., St. Paul, Minn.) under isoflurane or ketamine/metomidine anesthesia. The telemetry unit catheter was inserted into the descending aorta via the femoral artery and the telemetry device was implanted subcutaneously in the left flank area. Animals were allowed to recover from surgery for 14 days before the start of any studies. Blood pressure, heart rate, and activity signals from conscious, freely moving rats were recorded continuously for 30 seconds every 10 minutes. On the day prior to administration of compound, a single oral dose of vehicle (10% transcutol/20% Cremophor/70% water) was administered to all animals to establish baseline control data. The blood pressure lowering efficacy of compound (PO) or vehicle was evaluated following a single oral gavage. Data were collected as hourly averages, and changes in blood pressure were calculated by subtracting control baseline data on an hourly basis. Animals were maintained on normal diet with a 12 hour light-dark cycle.
Maximum peak decreases of systolic blood pressure (SBP) in SHR at a particular P.O. dose (mpk milligrams per kilogram) for the following representative compounds are provided. Category A=SBP in SHRs<20 mmHg; Category B=SBP in SHRs 20-40 mmHg; Category C=SBP in SHRs>40 mmHg

Take `Nc1nc(-c2cn3ccnc3c(CCCC(F)(F)F)n2)nc2c1C(c1cc(C(F)(F)F)ccn1)(C1CC1)C(=O)N2` (single isomer, unassigned) [Example 354B, 4-amino-5-cyclopropyl-2-(8-(4,4,4-trifluorobutyl)imidazo[1,2-a]pyrazin-6-yl)-5-(4-(trifluoromethyl)pyridin-2-yl)-5H-pyrrolo[2,3-d]pyrimidin-6(7H)-one]: in assay [1], the Emax amounted to 137% and the EC50 (as a rule, the concentration that produces a half-maximal response) was determined as 170 nM. In addition, in assay [2] (P.O. 1.0 mpk), the “Maximum peak decrease of systolic blood pressure (SBP) in SHR, Cat.” value (“Maximum peak decrease” below) is “A (Category A=SBP in SHRs<20 mmHg)”.

Take `CCCCc1nc(-c2nc(N)c3c(n2)NC(=O)C3(c2cccc(C(F)(F)F)n2)C2CC2)cn2ccnc12` (single isomer, unassigned) [Example 355A, 4-amino-2-(8-butylimidazo[1,2-a]pyrazin-6-yl)-5-cyclopropyl-5-(6-(trifluoromethyl)pyridin-2-yl)-5H-pyrrolo[2,3-d]pyrimidin-6(7H)-one]: in assay [1], the Emax turned out to be 126% and the concentration giving a half-maximal response (EC50) was 202 nM. Besides, the “Maximum peak decrease” value in assay [2] (P.O. 1.0 mpk) is recorded as “A (Category A=SBP in SHRs<20 mmHg)”.

For `Nc1nc(-c2cn3ccnc3c(CCCC(F)(F)F)n2)nc2c1C(c1ccc(C(F)F)cn1)(C1CC1)C(=O)N2` (single isomer, unassigned) [Example 378B, 4-amino-5-cyclopropyl-5-(5-(difluoromethyl)pyridin-2-yl)-2-(8-(4,4,4-trifluorobutyl)imidazo[1,2-a]pyrazin-6-yl)-5H-pyrrolo[2,3-d]pyrimidin-6(7H)-one], in assay [1], the Emax was 92% and the EC50 was 373 nM. Besides, the “Maximum peak decrease” value in assay [2] (P.O. 1.0 mpk) is listed as “B (Category B=SBP in SHRs 20-40 mmHg)”.

Turning to `CCCCc1nc(-c2nc(N)c3c(n2)NC(=O)C3(C)c2ccc(F)cc2)cn2ccnc12` (stereo not drawn) [Example 8A, 4-amino-2-(8-butylimidazo[1,2-a]pyrazin-6-yl)-5-(4-fluorophenyl)-5-methyl-5H-pyrrolo[2,3-d]pyrimidin-6(7H)-one], in assay [1], the Emax turned out to be 137% and the response was half-maximal at 45 nM (EC50). Moreover, the “Maximum peak decrease” value in assay [2] (P.O. 0.3 mpk) is “C (Category C=SBP in SHRs>40 mmHg)”.

Consider `CCCCc1nc(-c2nc(N)c3c(n2)NC(=O)C3(C)c2ccc(Cl)cc2)cn2ccnc12` (stereo not drawn) [Example 10A, 4-amino-2-(8-butylimidazo[1,2-a]pyrazin-6-yl)-5-(4-chlorophenyl)-5-methyl-5H-pyrrolo[2,3-d]pyrimidin-6(7H)-one], for which, in assay [1], the Emax worked out at 120% and the EC50 turned out to be 56 nM. In addition, the “Maximum peak decrease” value in assay [2] (P.O. 0.3 mpk) was “C (Category C=SBP in SHRs>40 mmHg)”.

`CC(C)CCc1nc(-c2nc(N)c3c(n2)NC(=O)C3(C)c2ccc(F)cn2)cn2ccnc12` (stereo not drawn) [Example 11B, 4-amino-5-(5-fluoropyridin-2-yl)-2-(8-isopentylimidazo[1,2-a]pyrazin-6-yl)-5-methyl-5H-pyrrolo[2,3-d]pyrimidin-6(7H)-one]: in assay [1], the Emax was 135% and a half-maximal response (EC50) required 46 nM. In addition, in assay [2] (P.O. 1.0 mpk), the “Maximum peak decrease” value is recorded as “B (Category B=SBP in SHRs 20-40 mmHg)”.

On to `CC(C)CCc1nc(-c2nc(N)c3c(n2)NC(=O)C3(C)c2ccc(Cl)cc2)cn2ccnc12` (stereo not drawn) [Example 14A, 4-amino-5-(4-chlorophenyl)-2-(8-isopentylimidazo[1,2-a]pyrazin-6-yl)-5-methyl-5H-pyrrolo[2,3-d]pyrimidin-6(7H)-one], for which, in assay [1], the Emax amounted to 113% and the EC50 was 111 nM. Moreover, the “Maximum peak decrease” value in assay [2] (P.O. 1.0 mpk) is “C (Category C=SBP in SHRs>40 mmHg)”.

For `CC1(c2ccc(Cl)cc2)C(=O)Nc2nc(-c3cn4ccnc4c(C4CCC4)n3)nc(N)c21` (stereo not drawn) [Example 15A, 4-amino-5-(4-chlorophenyl)-2-(8-cyclobutylimidazo[1,2-a]pyrazin-6-yl)-5-methyl-5H-pyrrolo[2,3-d]pyrimidin-6(7H)-one], in assay [1], the Emax was determined as 119% and the EC50 was found to be 82 nM. Also, in assay [2] (P.O. 1.0 mpk), the “Maximum peak decrease” value is given as “C (Category C=SBP in SHRs>40 mmHg)”.

Take `CCCCc1nc(-c2nc(N)c3c(n2)NC(=O)C3(C)c2ccc(F)cn2)cn2ccnc12` (stereo not drawn) [Example 16B, 4-amino-2-(8-butylimidazo[1,2-a]pyrazin-6-yl)-5-(5-fluoropyridin-2-yl)-5-methyl-5H-pyrrolo[2,3-d]pyrimidin-6(7H)-one]: in assay [1], the Emax came out at 117% and the response was half-maximal at 134 nM (EC50). For the same molecule, the “Maximum peak decrease” value in assay [2] (P.O. 0.3 mpk) is on record as “C (Category C=SBP in SHRs>40 mmHg)”.

With `CC(C)Cc1nc(-c2nc(N)c3c(n2)NC(=O)C3(C)c2ccc(Cl)cc2)cn2ccnc12` (stereo not drawn) [Example 20A, 4-amino-5-(4-chlorophenyl)-2-(8-isobutylimidazo[1,2-a]pyrazin-6-yl)-5-methyl-5H-pyrrolo[2,3-d]pyrimidin-6(7H)-one], in assay [1], the Emax came out at 108% and the response was half-maximal at 231 nM (EC50). Also, in assay [2] (P.O. 1.0 mpk), the “Maximum peak decrease” value is recorded as “C (Category C=SBP in SHRs>40 mmHg)”.

In the case of `CCCc1nc(-c2nc(N)c3c(n2)NC(=O)C3(c2ccc(Cl)cc2)C2CC2)cn2ccnc12` (stereo not drawn) [Example 26B, 4-amino-5-(4-chlorophenyl)-5-cyclopropyl-2-(8-propylimidazo[1,2-a]pyrazin-6-yl)-5H-pyrrolo[2,3-d]pyrimidin-6(7H)-one], in assay [1], the Emax was 81% and it took 253 nM to reach a half-maximal effect (EC50). The “Maximum peak decrease” value in assay [2] (P.O. 3.0 mpk) is on record as “B (Category B=SBP in SHRs 20-40 mmHg)”.

`CC1(c2nnc(C3CC3)s2)C(=O)Nc2nc(-c3cn4ccnc4c(Cc4ccc(F)cc4)n3)nc(N)c21` (stereo not drawn) [Example 32A, 4-amino-5-(5-cyclopropyl-1,3,4-thiadiazol-2-yl)-2-(8-(4-fluorobenzyl)imidazo[1,2-a]pyrazin-6-yl)-5-methyl-5H-pyrrolo[2,3-d]pyrimidin-6(7H)-one]: in assay [1], the Emax worked out at 137% and the EC50 was determined as 58 nM. For the same molecule, the “Maximum peak decrease” value in assay [2] (P.O. 1.0 mpk) was “B (Category B=SBP in SHRs 20-40 mmHg)”.

As to `Cc1nnc(C2(C)C(=O)Nc3nc(-c4cn5ccnc5c(Cc5ccc(F)cc5)n4)nc(N)c32)s1` (stereo not drawn) [Example 33A, 4-amino-2-(8-(4-fluorobenzyl)imidazo[1,2-a]pyrazin-6-yl)-5-methyl-5-(5-methyl-1,3,4-thiadiazol-2-yl)-5H-pyrrolo[2,3-d]pyrimidin-6(7H)-one], in assay [1], the Emax was determined as 135% and the response was half-maximal at 129 nM (EC50). Besides, in assay [2] (P.O. 1.0 mpk), the “Maximum peak decrease” value is reported as “B (Category B=SBP in SHRs 20-40 mmHg)”.

For the molecule `CC1(c2nnc(C3CC3)o2)C(=O)Nc2nc(-c3cn4ccnc4c(Cc4ccc(F)cc4)n3)nc(N)c21` (stereo not drawn) [Example 34A, 4-amino-5-(5-cyclopropyl-1,3,4-oxadiazol-2-yl)-2-(8-(4-fluorobenzyl)imidazo[1,2-a]pyrazin-6-yl)-5-methyl-5H-pyrrolo[2,3-d]pyrimidin-6(7H)-one], in assay [1], the Emax was found to be 150% and the EC50 came to 339 nM. The “Maximum peak decrease” value in assay [2] (P.O. 3.0 mpk) is listed as “B (Category B=SBP in SHRs 20-40 mmHg)”.
